Measurements from patent publication US6914045B2, “Glycopeptide antibiotics” (Wyeth Holdings Corporation, priority 2001, dated 2005).
Values after ≈ are worked out from the molar mass of the structure shown.

What was measured:
Assay in all cases: in vitro antibacterial evaluation, MIC by broth dilution
Assay type in all cases: cell-based
Settings in all cases: broth dilution, 18 hours at 35° C.
Escherichia coli = tested on: Escherichia coli
In short: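 Broth dilution in Muller-Hinton II medium per NCCLS standard M7-A2, with an inoculum of 5×10^5 CFU/mL and antibiotic tested over 64-0.06 μg/mL. MIC was taken as the lowest concentration inhibiting visible growth.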

Streptococcus sp. = tested on: Streptococcus sp.
Experimental: (§1) Methods for in vitro Antibacterial Evaluation (Table 1)
(§2) The minimum inhibitory concentration (MIC), the lowest concentration of the antibiotic which inhibits growth of the test organism, is determined by the broth dilution method using Muller-Hinton II […] (Baltimore Biological Laboratories) following the recommendations of the National Committee for Clinical Laboratory Standards [Methods for dilution antimicrobial susceptibility tests for bacteria that grow aerobically, approved standard M7-A2, National Committee for Clinical Laboratory Standards, Villanova, Pa.].
(§3) An inoculum level of 5×10^5 CFU/mL, and a range of antibiotic concentrations (64-0.06 μg/mL) is used. […] The test organisms include a spectrum of Gram-positive bacteria comprised of Staphylococcus sp., Streptococcus sp. and Enterococcus sp. These organisms include recent clinical isolates that are resistant to methicillin, penicillin and/or vancomycin.

Staphylococcus sp. = tested on: Staphylococcus sp.
Experimental: as §1, §2, §3

Enterococcus sp. = tested on: Enterococcus sp.
Experimental: as §1, §2, §3

MIC Escherichia coli (ATCC 25922) (Escherichia coli; strain ATCC 25922): 128 µg/mL (≈ 114 µM)
MIC Escherichia coli (GC 4559) (Escherichia coli; strain GC 4559): 128 µg/mL (≈ 114 µM)
MIC Escherichia coli (GC 4560) (Escherichia coli; strain GC 4560): 128 µg/mL (≈ 114 µM)
MIC Streptococcus pneumoniae (ATCC 6301) (Streptococcus sp.; strain ATCC 6301): 128 µg/mL (≈ 114 µM)
MIC Streptococcus pneumoniae (GC 1894) (Streptococcus sp.; strain GC 1894): 64 µg/mL (≈ 57.1 µM)
MIC Streptococcus pyogenes (GC 4563) (Streptococcus sp.; strain GC 4563): >128 µg/mL
MIC Streptococcus agalactiae (GC 4564) (Streptococcus sp.; strain GC 4564): >128 µg/mL
MIC Streptococcus pneumoniae (GC 4565) (Streptococcus sp.; strain GC 4565): 128 µg/mL (≈ 114 µM)
MIC Staphylococcus aureus (ATCC 29213) (Staphylococcus sp.; strain ATCC 29213): >128 µg/mL
MIC Staphylococcus aureus (GC 1131) (Staphylococcus sp.; strain GC 1131): >128 µg/mL
MIC Staphylococcus aureus (GC 3051) (Staphylococcus sp.; strain GC 3051): >128 µg/mL
MIC Staphylococcus aureus (GC 3053) (Staphylococcus sp.; strain GC 3053): >128 µg/mL
MIC Staphylococcus aureus (GC 4541) (Staphylococcus sp.; strain GC 4541): >128 µg/mL
MIC Staphylococcus aureus (GC 4542) (Staphylococcus sp.; strain GC 4542): >128 µg/mL
MIC Staphylococcus aureus-SMITH (GC 4543) (Staphylococcus sp.; strain GC 4543): >128 µg/mL
MIC Staphylococcus aureus (GC 4544) (Staphylococcus sp.; strain GC 4544): >128 µg/mL
MIC Staphylococcus aureus (GC 4545) (Staphylococcus sp.; strain GC 4545): >128 µg/mL
MIC Coagulase Negative Staphylococcus (GC 4547) (Staphylococcus sp.; strain GC 4547): >128 µg/mL
MIC Coagulase Negative Staphylococcus (GC 4548) (Staphylococcus sp.; strain GC 4548): >128 µg/mL
MIC Coagulase Negative Staphylococcus (GC 4549) (Staphylococcus sp.; strain GC 4549): 128 µg/mL (≈ 114 µM)
MIC Coagulase Negative Staphylococcus (GC 4551) (Staphylococcus sp.; strain GC 4551): >128 µg/mL
MIC Coagulase Negative Staphylococcus (GC 6257) (Staphylococcus sp.; strain GC 6257): >128 µg/mL
MIC Enterococcus faecalis (ATCC 29212) (Enterococcus sp.; strain ATCC 29212): >128 µg/mL
MIC Enterococcus faecalis (GC 2242) (Enterococcus sp.; strain GC 2242): >128 µg/mL
MIC Enterococcus faecium (GC 2243) (Enterococcus sp.; strain GC 2243): >128 µg/mL
MIC Enterococcus faecalis (GC 2691) (Enterococcus sp.; strain GC 2691): >128 µg/mL
MIC Enterococcus faecalis (GC 3059) (Enterococcus sp.; strain GC 3059): >128 µg/mL
MIC Enterococcus faecalis (GC 4552) (Enterococcus sp.; strain GC 4552): >128 µg/mL
MIC Enterococcus faecalis (GC 4553) (Enterococcus sp.; strain GC 4553): 128 µg/mL (≈ 114 µM)
MIC Enterococcus faecalis (GC 4554) (Enterococcus sp.; strain GC 4554): >128 µg/mL
MIC Enterococcus faecium (GC 4556) (Enterococcus sp.; strain GC 4556): >128 µg/mL
MIC Enterococcus faecium (GC 4557) (Enterococcus sp.; strain GC 4557): 128 µg/mL (≈ 114 µM)
MIC Enterococcus avium (GC 4558) (Enterococcus sp.; strain GC 4558): 128 µg/mL (≈ 114 µM)
MIC Enterococcus faecalis (GC 6189) (Enterococcus sp.; strain GC 6189): >128 µg/mL
Structure (SMILES): Cc1ccc(OC(=O)Nc2cc(CC3NC(=O)C(C(C)c4ccccc4)NC(=O)CNC(=O)C(CO)NC(=O)C(C(O)C4CNC(=N)N4C4OC(CO)C(O)C(O)C4O)NC(=O)C(C(O)C4CNC(=N)N4)NC3=O)ccc2O)cc1 (stereo not drawn) [Example 19, Cyclo[glycyl-β-methylphenylalanyl-3-[[(4-methylphenoxy)carbonyl]amino]tyrosyl-3-(2-iminoimidazolidin-4-yl)seryl-3-(3-hexopyranosyl-2-iminoimidazolidin-4-yl)serylseryl]]
MIC Staphylococcus haemolyticus (GC 4546) (Staphylococcus sp.; strain GC 4546): >128 µg/mL
